Values of other authors as cited in PMC11238383, “A review on the cultivation, bioactive compounds, health-promoting factors and clinical trials of medicinal mushrooms Taiwanofungus camphoratus, Inonotus obliquus and Tropicoporus linteus” (Fungal Biology and Biotechnology, 2024).
Converted amounts (≈) assume the structure as drawn.

How the values were obtained:
C2C12 cells [1] = tested on: C2C12 cells; set-up: method as in Kuo et al. [177]; settings: in vitro; ref Kuo et al. [177]
[2] = tested on: Streptozotocin-induced diabetic C57BL/6J mice; set-up: method as in Kuo et al. [177]; settings: in vivo; ref Kuo et al. [177]
[3] = tested on: Oleic and palmitic acids (O/P) lipid accumulation-induced HepG2 cells; set-up: method as in Chiu et al. [138]; settings: ref Chiu et al. [138]
[4] = tested on: Severe acute respiratory syndrome coronavirus 2 (SARS-CoV-2) virus-infected HepG2 cells; set-up: method as in Li et al. [35], [38]; settings: ref Li et al. [35], [38]
3CL protease = tested on: 3CL protease; set-up: method as in Li et al. [35], [38]; settings: ref Li et al. [35], [38]
aldose reductase = tested on: aldose reductase; set-up: method as in Lee et al. [136]; settings: ref Lee et al. [136]
[5] = tested on: Streptozotocin-induced diabetic C57BL/6J mice; set-up: method as in Lin et al. [176]; settings: ref Lin et al. [176]
[6] = tested on: High-fat diet-induced C57BL/6J mice; set-up: method as in Lin et al. [175]; settings: ref Lin et al. [175]
C2C12 cells [7] = tested on: C2C12 cells; set-up: method as in Kuo et al. [174]; settings: ref Kuo et al. [174]
C57BL/6J mice = settings: 40 mg/kg/day versus Metformin 300 mg/kg/day; ref [174]
[8] = tested on: Streptozotocin-induced diabetic C57BL/6J mice; set-up: method as in Kuo et al. [178]; settings: ref Kuo et al. [178]
[9] = ref Lee et al. [226]
[10] = tested on: LPS-stimulated RAW264.7 cells; set-up: method as in Huang et al. [212], [243]; settings: ref Huang et al. [212], [243]
Influenza A H1N1 virus = tested on: Influenza A H1N1 virus; set-up: method as in Hwang et al. [13]; settings: 10 uM; ref Hwang et al. [13]
H1N1 neuraminidase = settings: ref [13]
[11] = tested on: Oxidative stress-induced HepG2 cells; set-up: method as in Kumar et al. [180]; settings: pretreatment, after 24 h; ref Kumar et al. [180]
[12] = tested on: Obesity-induced Wistar rats; set-up: method as in Chen et al. [181]; settings: ref Chen et al. [181]
breast cancer cells = tested on: breast cancer cells; set-up: method as in PMID 25656647; settings: ref [71]
[13] = tested on: Hepatitis C virus (HCV) protease; set-up: method as in My et al. [190]; settings: ref My et al. [190]
[14] = tested on: MCF7, MDA-MB-231, T24 and J82 cells; set-up: method as in Lu et al. [232]; settings: ref Lu et al. [232]
Chang liver cells = tested on: Chang liver cells; set-up: method as in Parfenov et al. [216]; settings: I. obliquus; 10^−5 and 10^−3 g/L; ref Parfenov et al. [216]
[15] = tested on: Carbon tetrachloride (CCl4) liver damage induced-Sprague Dawley rats; set-up: method as in Parfenov et al. [216]; settings: I. obliquus; ref Parfenov et al. [216]
[16] = tested on: High-fat diet-induced C57BL/6J mice; set-up: method as in Kuo et al. [178]; settings: ref Kuo et al. [178]
[17] = tested on: Ultraviolet B-irradiated BALB/cAnN.Cg-Foxn1nu/CrlNarl hairless mice; set-up: method as in Kuo et al. [184]; settings: topical 25 and 100 μM; ref Kuo et al. [184]
H1264 = tested on: H1264; set-up: method as in Baek et al. [203]; settings: ref Baek et al. [203]
H1299 = tested on: H1299; set-up: method as in Baek et al. [203]; settings: ref Baek et al. [203]
Calu-6 = tested on: Calu-6; set-up: method as in Baek et al. [203]; settings: ref Baek et al. [203]
[18] = tested on: Chronic alcohol-induced liver disease in C57BL/6J (B6) mice; set-up: method as in Chang et al. [182]; settings: ref Chang et al. [182]

Compound: C=C(CC[C@@H](C(=O)O)[C@H]1CC[C@@]2(C)C3=CC[C@H]4C(C)(C)[C@@H](O)CC[C@]4(C)C3=CC[C@]12C)C(C)C [Dehydroeburicoic acid]
- GLUT4 expression (C2C12 cells [1]): Higher expression of GLUT4
- decrease in blood glucose level [2]: 43.6–46.5%

Compound: O=c1cc(O)cc([C@H]2c3c(cc(/C=C/c4ccc(O)c(O)c4)oc3=O)O[C@@H]2c2ccc(O)c(O)c2)o1 [Hypholomine B, hypholomine B]
- lipid accumulation [3]: Significant reduction in lipid accumulation
- ACE2 gene expression [4]: Reduced the expression of angiotensin-converting enzyme 2 (ACE2) gene
- 3CL protease (3CL protease): Inhibition of 3CL protease
- aldose reductase inhibition (aldose reductase): capable of inhibiting aldose reductase

Compound: C=C(CC[C@@H](C(=O)O)[C@H]1C[C@H](O)[C@@]2(C)C3=C(CC[C@]12C)[C@@]1(C)CC[C@H](O)C(C)(C)[C@@H]1CC3)C(C)C [Sulphurenic acid]
- insulin and HbA1c [5]: Rise of insulin levels and reduction in the concentration of glycated hemoglobin (HbA1c)
- PPAR-α expression in the liver [6]: Increased expression of PPAR-α in the liver which facilitated fatty acid oxidation and the reduction of lipid levels

Compound: C=C(CC[C@@H](C)[C@H]1CC[C@H]2C3=C(C(=O)C[C@]12C)[C@@]1(C)CC[C@@H](O)[C@](C)(O)[C@@H]1C[C@@H]3O)C(C)C(=O)O (some centres unmarked) [Antcin K]
- GLUT4 and phospho-Akt expression (C2C12 cells [7]): Enhance membrane glucose transporter 4 (GLUT4) and phosphor-Akt expressions
- antihyperglycemic effect (C57BL/6J mice): comparable to Metformin
- FAS, CPT-1a, PPARα expression [8]: Fatty acid synthase (FAS) expression levels declined while hepatic expression levels of carnitine palmitoyl transferase 1a (CPT-1a) and peroxisome proliferator-activated receptor α (PPARα) rose

Compound: CC1=CC(=O)/C(=C/c2ccc(O)c(O)c2)O1 [Inotilone, inotilone]
- antioxidant activity [9]: Potent antioxidant activity, with higher antioxidant activity than BHA and Trolox in FRAP assay
- NO, iNOS, NF-κB, MMP-9 [10]: Inhibit NO production, iNOS, NF-κB, and MMP-9 expressions, and LPS-induced ERK, JNK, and p38 phosphorylation
- visible cytopathic effects (Influenza A H1N1 virus): 10 uM of both inhibited the formation of visible cytopathic effects, with IC50 values lower than Oseltamivir
- IC50 (H1N1 neuraminidase): 61 µM
- neuraminidase activity (H1N1 neuraminidase): inhibit neuraminidase activity

Compound: COC1=C(OC)[C@H](O)[C@H](C/C=C(\C)CC/C=C(\C)CCC=C(C)C)[C@@H](C)C1=O [Antroquinonol, antroquinonol]
- rise in ALT and AST caused by ethanol [11]: Antroquinonol pretreatment considerably and dose-dependently decreased the rise in ALT and AST caused by ethanol after 24 h in HepG2 cells
- hepatoprotective effect [12]: Exerts hepatoprotective effects by inhibiting hepatic lipid accumulation
- migration and invasion (breast cancer cells): inhibit the migration and invasion of breast cancer cells

Compound: CC(C)=CCOc1ccc(C2=C(CC(C)C)C(=O)OC2=O)cc1 [Antrodin A]
- half-maximal inhibitory concentration (IC50) [13]: Antrodins A to E, except antrodin B, exhibited potent inhibitory effects against the HCV protease, with Antrodin A having the highest potency with a half-maximal inhibitory concentration (IC50) value of 0.9 µg/mL

Compound: CC(=O)/C=C(O)/C=C/c1ccc(O)c(O)c1 [Hispolon, hispolon]
- suppression of cancer cells [14]: Suppressed p53 mutant (MDA-MB-231, T24, and J82) and wild-type (MCF7) cells regardless of p53 status Apoptosis characterized by chromatin condensation and poly (ADP-ribose) polymerase (PARP) increase

Compound: Melanin
- increase in viability of liver cells intoxicated with d-galactosamine (Chang liver cells): 2–2.5 times
- liver damage findings [15]: Decrease in fat buildup, steatosis, necrosis

Compound: CC(C)[C@@H](C)/C=C/[C@@H](C)[C@H]1CC[C@H]2C3=CCC4C[C@@H](O)CC[C@]4(C)C3=CC[C@]12C (stereo partly drawn) [Ergostatrien-3β-ol]
- visceral adipocyte size, hepatic ballooning [16]: Reduced visceral adipocyte size and induced hepatic ballooning degeneration
- MMP-1, IL-6, iNOS, NF-κB in skin [17]: Significant inhibition of metalloproteinase-1 (MMP-1), IL-6, iNOS and NF-κB in skin

Compound: CC(C)=CCC[C@@H](C=O)[C@H]1CC[C@@]2(C)C3=C(CC[C@]12C)[C@@]1(C)CC[C@H](O)C(C)(C)[C@@H]1CC3 [3β-hydroxylanosta-8,24-dien-21-al]
- IC50 (H1264): 90.9 µg/mL (≈ 206 µM)
- IC50 (H1299): 128.0 µg/mL (≈ 290 µM)
- IC50 (Calu-6): 75.1 µg/mL (≈ 170 µM)

Compound: CC(C)[C@@H](C)/C=C/[C@@H](C)[C@H]1CC[C@H]2C3=CCC4C[C@@H](O)CC[C@]4(C)C3=CC[C@]12C (some centres unmarked) [Antrosterol]
- hepatoprotective findings [18]: Reduction in serum/hepatic lipids, rise in output of fecal lipid/bile-acid output, amplified hepatic antioxidant activities, reduced serum alcohol level, decrease liver inflammation, fibrosis, serum AST/ALT and TNF-α/IL-1β
